Here are results for five compounds from patent publication US7064206B1 (University of Kentucky Research Foundation, priority 2003, dated 2006).

Data set [1] can be described thus: Non-enzymatic decomposition of the glycinate ester prodrug at physiological pH. The format is physicochemical. The conditions noted are these: pH of 7 or above. An excerpt:
4 arose by a competitive intermolecular reaction to the lactam intermediate and reacted to release both 5 and 6.

For data set [2], the target named is human serum albumin (HSA) (Homo sapiens, UniProt P02768). Conditions: cited from earlier work.
Chain of human serum albumin (HSA) (P02768 25-609): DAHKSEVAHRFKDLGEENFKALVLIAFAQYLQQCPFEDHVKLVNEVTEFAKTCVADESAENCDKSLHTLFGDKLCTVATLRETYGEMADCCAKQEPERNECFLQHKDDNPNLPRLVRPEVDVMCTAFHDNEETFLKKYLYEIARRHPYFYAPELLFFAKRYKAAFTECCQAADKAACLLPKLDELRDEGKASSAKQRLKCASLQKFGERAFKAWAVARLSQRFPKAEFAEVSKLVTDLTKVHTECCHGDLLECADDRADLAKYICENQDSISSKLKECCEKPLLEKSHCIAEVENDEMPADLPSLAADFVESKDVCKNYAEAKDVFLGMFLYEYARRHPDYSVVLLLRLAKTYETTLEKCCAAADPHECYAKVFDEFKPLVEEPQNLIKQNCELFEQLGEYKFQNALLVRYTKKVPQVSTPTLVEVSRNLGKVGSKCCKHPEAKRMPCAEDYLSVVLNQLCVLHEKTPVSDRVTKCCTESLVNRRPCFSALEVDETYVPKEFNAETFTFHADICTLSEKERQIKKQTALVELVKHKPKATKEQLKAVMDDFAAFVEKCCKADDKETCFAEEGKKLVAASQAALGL
The subject of another data set is human glioma. Conditions: murine model; cited from earlier work.
For data set [3], the target named is T1, topoisomerase I cleavage complexes (Homo sapiens, UniProt P11387).
T1 sequence (P11387 1-765): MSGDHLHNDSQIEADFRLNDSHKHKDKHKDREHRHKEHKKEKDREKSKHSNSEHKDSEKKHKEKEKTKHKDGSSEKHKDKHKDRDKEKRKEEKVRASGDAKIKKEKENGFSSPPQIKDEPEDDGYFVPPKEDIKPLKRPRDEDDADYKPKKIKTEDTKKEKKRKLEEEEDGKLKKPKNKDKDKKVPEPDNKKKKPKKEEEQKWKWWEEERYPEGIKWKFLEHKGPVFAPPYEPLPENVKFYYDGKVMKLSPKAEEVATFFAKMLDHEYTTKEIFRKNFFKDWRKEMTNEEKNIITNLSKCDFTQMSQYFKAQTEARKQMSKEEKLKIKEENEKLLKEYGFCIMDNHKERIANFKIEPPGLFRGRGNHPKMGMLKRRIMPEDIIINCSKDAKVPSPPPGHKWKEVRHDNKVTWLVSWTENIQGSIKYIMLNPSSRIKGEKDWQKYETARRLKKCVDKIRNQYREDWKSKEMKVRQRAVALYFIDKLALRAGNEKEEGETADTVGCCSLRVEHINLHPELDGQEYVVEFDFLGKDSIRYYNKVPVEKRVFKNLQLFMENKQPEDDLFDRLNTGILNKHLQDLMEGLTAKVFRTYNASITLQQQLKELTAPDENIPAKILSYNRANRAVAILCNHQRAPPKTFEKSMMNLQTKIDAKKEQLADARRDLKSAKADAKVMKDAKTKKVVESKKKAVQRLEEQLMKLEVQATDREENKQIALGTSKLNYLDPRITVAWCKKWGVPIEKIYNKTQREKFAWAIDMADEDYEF
Conditions: cell-free; vs camptothecin or SN-38; cited from earlier work.

For data set [4] the following is noted: human blood, cited from earlier work.
A short description of data set [5]: Stability of free and liposomal prodrug in whole blood.

For `CC[C@@]1(OC(=O)CN)C(=O)OCc2c1cc1n(c2=O)Cc2c-1nc1ccc(O)cc1c2[Si](C)(C)C(C)(C)C` [DB-67 20(S)-glycinate ester], the “decomposition at physiological pH” value in data set [1] is “rapid and convenient non-enzymatic decomposition process that releases active DB-67”.

As for `CC[C@@]1(O)C(=O)OCc2c1cc1n(c2=O)Cc2c-1nc1ccc(O)cc1c2[Si](C)(C)C(C)(C)C` [DB-67, 7-t-butyldimethylsilyl-10-hydroxycamptothecin], the “association of carboxylate form with the high affinity carboxylate binding pocket on HSA” value in data set [2] is recorded as “blocks the associations”. The “activity against human glioma” value in the data set with human glioma was “display activity against human glioma”. Besides, in data set [3], the “stability of topoisomerase I cleavage complexes” value is listed as “more stable topoisomerase I cleavage complexes than camptothecin or SN-38”. In addition, the “% lactone at equilibrium” value in data set [4] is on record as 30%. The t1/2 in data set [4] (lactone hydrolysis) was 2.17 h. Regarding `CCc1c2c(nc3ccc(O)cc13)-c1cc3c(c(=O)n1C2)COC(=O)[C@]3(O)CC` [SN-38], in data set [2], the “association of carboxylate form with the high affinity carboxylate binding pocket on HSA” value is reported as “block SN-38 from associating”. For Camptothecin, the “affinity of lactone form for HSA” value in data set [2] (lactone form) is “moderate affinity”. As to DB-67 4-aminobutanoate ester, the “decomposition of free prodrug” value in data set [5] is “extensive”.
